Test [1] has as its system 5-alpha steroid reductase. Nature of the test: Testosterone metabolism in human and rat heart microsomal suspensions (HPLC of metabolites). It is filed as biochemical. The following applies: FIG. 3.
Test [2] has as its system alpha-MHC expression. As to conditions: testosterone substitution (100 μM, 8 h); rat heart muscle cells; FIGS. 7 and 8.
Protocol: (§1) Total RNA was isolated from heart tissue using the Total RNA Isolation Kit (Macherey-Nagel, Germany) according to the manufacturer's instructions. The quality of the isolated RNA was assessed by evaluating the ribosomal bands on agarose gel (1%). Of each sample, 2 μg RNA was used for reverse transcription. RNA and random primer (Roche Diagnostics, Mannheim, Germany) were preheated at 70° C. for 10 min. and subsequently incubated with 5×RT-AMV buffer (Roche Diagnostics, Mannheim, Germany), dNTPs (1 mM; Roche Diagnostics, Mannheim, Germany), 40U RNAse inhibitor (Stratagene, Amsterdam, Netherlands) and 20U AMV-RT (Promega, Mannheim, Germany) at a total volume of 20 μl for 60 min. at 42° C. […]
(§2) The studies were conducted With a lightcyler (Roche Diagnostics, Mannheim, Germany). […] By the end of each extension phase, fluorescence was measured to be used for evaluation. To guarantee that no unspecific primer dimers are measured, fluorescence detection was conducted above the temperature characteristic of primer dimers (as assessed in preliminary studies). Amplification was followed by a melting curve analysis, measuring fluorescence by slowly increasing the temperature of the DNA synthesis products from 65° C. to 95° C. […] The exact amount of the obtained PCR product was determined by co-amplification of standardized cardiac cDNA and according to the manufacturer's instructions. […]
Test [3] concerns androgen receptor expression. Nature of the test: Androgen receptor expression in cultivated rat heart muscle cells (real-time RT-PCR). It is filed as cell-based. As to conditions: testosterone added to culture medium (100 μM); isolated rat heart muscle cells; FIG. 5c. (In general: Quantitative PCR measures a nucleic acid by following its amplification.)
Protocol: as §1, §2

The values that follow come from patent US20060258632A1, “Methods and agents for treating cardiovascular diseases” (Fraunhofer-Gesellschaft zur Forderung der angewandten …, priority 2002, published 2006).

`CC(C)(C)NC(=O)[C@H]1CC[C@H]2[C@@H]3CC[C@H]4NC(=O)C=C[C@]4(C)[C@H]3CC[C@]12C` [finasteride]: the 5-alpha-DHT production decreased in test [1] (finasteride 25 μM, heart microsomes, 100 μM testosterone, 4 h at 37° C.) came out at 60%. Moreover, in test [1] (inhibition of 5-alpha reductase), the “production of dihydrotestosterone in the heart tissue” value was “reduced and normalized”.

Take `C[C@]12CC[C@H]3[C@@H](CCC4=CC(=O)CC[C@@]43C)[C@@H]1CC[C@@H]2O` [testosterone]: in test [2], the alpha-MHC expression result is given as “normalization”. Further, the androgen receptor expression entry in test [3] is “reduces and normalizes”.
